{
  "source": "patent US5278068A",
  "about": "“Biologically pure culture of Cytospora useful as angiotensin II antagonist” (Merck & Co., Inc., priority 1992, dated 1994)",
  "key": {"male Sprague-Dawley rats": {"system": "male Sprague-Dawley rats", "details": "rat; known activity; cited from earlier work"}, "rats": {"system": "rats", "details": "rat; known activity; cited from earlier work"}, "[1]": {"target": "T1, angiotensin II receptor, site 2 (rat adrenal membranes) (Rattus norvegicus, UniProt P35351)", "T1 construct": "Adrenal membranes for the receptor assay were readied first by placing cleaned, whole adrenal glands in microcentrifuge tubes; from tissue; host or cells: rat adrenal gland membranes", "T1 sequence (P35351 1-363)": "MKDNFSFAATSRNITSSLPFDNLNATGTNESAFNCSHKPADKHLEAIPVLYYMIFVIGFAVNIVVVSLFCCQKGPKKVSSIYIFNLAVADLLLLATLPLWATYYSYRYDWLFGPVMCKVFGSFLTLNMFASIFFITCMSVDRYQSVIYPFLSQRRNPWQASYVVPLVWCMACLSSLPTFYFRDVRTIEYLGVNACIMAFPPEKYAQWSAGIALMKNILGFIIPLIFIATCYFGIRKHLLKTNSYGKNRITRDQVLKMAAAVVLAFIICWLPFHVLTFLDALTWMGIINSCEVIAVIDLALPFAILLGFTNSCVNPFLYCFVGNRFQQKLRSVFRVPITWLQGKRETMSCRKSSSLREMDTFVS", "experiment": "Receptor Assay using Rat Adrenal Gland Preparation (125I-Angiotensin II binding)", "details": "at site 2, 37° C., 90 minutes", "source_text": "Angiotensin II (AII) is a powerful arterial vasoconstrictor, and it exerts its action by interacting with specific receptors present on cell membranes. The compounds produced by Cytospora sp. are competitive antagonists of AII at receptor sites. The usefulness of compounds as AII antagonists may be determined from the results of certain receptor binding assays. The initial assay is that using rat adrenal glands and the results of this assay are described herein.\nAdrenal membranes for the receptor assay were readied first by placing cleaned, whole adrenal glands in microcentrifuge tubes (20 glands per tube), and freezing and storing under liquid nitrogen. As needed, a microcentrifuge tube of adrenal glands was homogenized in 20 ml 50 mM tris (hydroxymethyl)aminomethane hydrochloride (Tris-HCl) pH 7.7 and centrifuged at 20,000 rpm for 15 minutes at 4° C. […]\nFor the assay, the adrenal membrane preparation in one vial was resuspended in 30 ml of 100 mM Tris-HCl pH 7.4 with 5 mM MgCl2, 0.2% bovine serum albumin and 0.2 mg/ml bacitracin. […] The vials are counted with a gamma counter for one minute and percent inhibition determined from counts/min (CPM) as follows: [formula] The IC50 is determined by plotting percent inhibition v. concentration of compound tested."}},
  "note": "Values joined by “and” are separate entries in the source; they are usually repeats but may differ in a detail not shown here. Equal values may be shown once.",
  "data": [
    {"compound": "CN1C(=O)CN=C(c2ccccc2)c2cc(Cl)ccc21", "note": "[Diazepam]", "values": [
      {"measurement": "activity in conditioned emotional response assay", "setting": "male Sprague-Dawley rats", "result": "active in this assay"}
    ]},
    {"compound": "CNC(=O)Oc1ccc2c(c1)[C@]1(C)CCN(C)[C@@H]1N2C", "note": "[physostigmine]", "values": [
      {"measurement": "activity in passive avoidance assay", "setting": "rats", "result": "known to be active"}
    ]},
    {"compound": "CCCCCC1=C(C=O)C2OC(C)(C)C(O)CC23OC3C1=O", "note": "(stereo not drawn) [Compound A]", "values": [
      {"measurement": "IC50", "setting": "[1]", "result": "1620 to 3240 nM and 1000 to 2000 nM"}
    ]}
  ]
}
